Experimental data taken from patent US8168596B2, “Use of cycloartane compounds for treating arthritis” (NuLiv Holding Inc., priority 2008, dated 2012).

Key:
[1] = tested on: MMP1; assay: Western blotting of MMP1 protein expression induced by PMA in SW1353 cells (Example 2); type: cell-based, human; details: for level of MMP1 protein expression (group without AS4 treatment set as 1): then PMA 100 ng/mL 24 h, culture medium
Protocol: Alternatively, the control group was treated with 0.1% dimethyl sulfoxide (DMSO). Phorbol myristate acetate (PMA; Sigma, St. Louis, Mo.) at a concentration of 100 ng/mL was then added into each well and the cells were incubated for 24 hours. The culture medium was collected for western blotting analysis.
Western blotting analysis was carried out based on the following procedure. Cells were washed and lysed in 0.2 mL of lysis buffer (1% NP-40, 50 mM Tris-HCl, pH 7.4, 180 mM NaCl, 1 mM EDTA, 1 mM PMSF, 1 mM NaF, 10 mM Na3VO4) for 30 min at 4° C. After centrifugation at 17500 g for 15 min, the supernatants of cell lysate were collected. Protein concentrations of the samples were measured using the bicinchoninic acid (BCA) protein assay kit according to the manufacturer's protocol (Pierce, Rockford, Ill., USA). Equal amounts of protein samples of concentrated conditioned medium (100 μg) or cell lysate supernatants (50 μg) were mixed with an appropriate volume of 4×SDS sampling buffer and separated on a 8% SDS-PAGE gel. The protein bands separated on the SDS-PAGE gel were blotted onto a polyvinylidene fluoride (PVDF) membrane. The blotted PVDF membrane was washed twice and blocked in freshly prepared Tris-buffered saline (TBS) containing 0.1% Tween-20 and 7% skim milk (TBST) for 2 hours at room temperature. The PVDF membrane was then incubated with a primary antibody against MMP1 protein (Santa Cruz Biotechnology, Santa Cruz, Calif.) for 18 hours at 4° C. Horseradish peroxidase-conjugated anti-goat antibody was used as the secondary antibody. Signals were visualized by an enhanced chemiluminescence kit (Clonetech, Palo Alto, Calif., USA) followed by exposure to X-ray films.
In another testing, the SW1353 cells were treated with 0.1 μM astragaloside IV (AS4), followed by incubation for 24 hours. PMA at a concentration of 100 ng/mL was then added into each well. The culture medium was collected after 6, 12, 18 and 24 hours of PMA treatment for western blotting analysis.

[2] = tested on: MMP-1; assay: Zymography of MMP-1 from pre-treated SW1353 cells; type: cell-based, human; details: PMA-pre-treated SW1353; 0.1 μM, 24 h
Protocol: At the beginning of the experiment, the cells were pre-treated with 100 ng/mL PMA or 10 ng/mL IL-1β for 24 hours. The cells were then treated with 0.1 μM Dexamethasone, various astragaloside compounds (0.1 μM) or extracts of Astragalus membranaceous (1 μg/mL) at indicated dosages for another 24 hours. For control sample, 0.1% DMSO was used as a negative control for these experiments. The conditioned culture mediums were then centrifuged, 2-fold concentrated and collected for assay of collagens or MMPs secreted into the culture medium.
The proteolytic activities of MMPs from SW1353 cells were measured essentially as described previously (Circ Res, 1999; 85:906-911). The cells were lysed in lysis buffer (1% Triton X-100, 50 mM Tris-Cl, pH 7.4, 180 mM NaCl, 1 mM EDTA). The samples were measured for their protein concentration using the bicinchoninic acid (BCA) protein assay kit as described. Samples of concentrated conditioned medium and cell lysates were mixed with non-reducing electrophoresis loading buffer and subjected to electrophoresis under non-reducing conditions. The electrophoresis was carried out on a 10% SDS-PAGE co-polymerized with 2 mg/mL gelatin or casein (Sigma, St. Louis, Mo. USA). For zymographic analysis of pro-MMP-2 and activated MMP-2, the total 20 μg of culture medium were used for electrophoresis. Following electrophoresis, renaturation of the proteins was achieved by incubating the gels twice in 25 g/L Triton X-100 at room temperature for 10 min. Subsequently the gels were incubated in 50 mM Tris-HCl, pH 7.5 containing 0.2 M NaCl, 0.02% Brij35 and 10 mM CaCl2 at 37° C. for 18 hours. After the gels were stained with Coomassie Brilliant Blue R-250 and destained, zones of proteolytic activities became visible as transparent bands in the stained gel. In order to obtain higher sensitivity, the gels were further destained in a solution of 1% Triton X-100 (1 to 2 hours). This procedure increased the signal-to-noise ratio, allowing the visualization of faint gelatinase bands at 92 kDa, 125 kDa and greater than 200 kDa. Zymograms were read using a Molecular Dynamics (Sunnyvale, Calif., USA) computing laser densitometer with Image Quant software.

CC(C)(O)[C@@H]1CC[C@](C)([C@H]2[C@@H](O)C[C@@]3(C)[C@@H]4C[C@H](O[C@@H]5O[C@H](CO)[C@@H](O)[C@H](O)[C@H]5O)[C@H]5C(C)(C)[C@@H](O[C@@H]6OC[C@@H](O)[C@H](O)[C@H]6O)CC[C@@]56C[C@@]46CC[C@]23C)O1 [AS4, Astragaloside IV]
level of MMP1 protein expression (group without AS4 treatment set as 1) ([1]; AS4 0.01 μM 24 h): 0.77 | level of MMP1 protein expression (group without AS4 treatment set as 1) ([1]; AS4 0.1 μM 24 h): 0.64 | level of expression of MMP1 protein at different time points, compared with only PMA treatment ([1]; AS4 0.1 μM 24 h, then PMA 100 ng/mL, 6, 12, 18 and 24 hours): inhibited | level of MMP1 protein expression (group without AS4 treatment set as 1) ([1]; AS4 1 μM 24 h): 0.55 | MMP-1, Zymography, relative to Ctrl 1.00 [2]: 0.68
